We go through 5 molecules from US7592365B2, “Substituted pyrroles, compositions containing same, method for making same and use thereof” (Aventis Pharma S.A., priority 2005, dated 2009).

Series [1] deals with T1, human KDR enzyme (cytoplasmic domain, GST fusion) (Homo sapiens, UniProt P35968).
T1 construct: The cytoplasmic domain of the human KDR enzyme was cloned in a GST fusion form; GST; made in house; host or cells: SF21 insect cells (baculovirus)
The experiment in a line: Phosphorylation of substrate by the KDR enzyme in vitro, scintillation technique. The class given is biochemical. The settings on record: 2 μM cold ATP, PLCγ SH2-SH3 substrate, 1 hour at 37° C.; read-out: KDR IC 50. How it is done:
The inhibitory effect of the compounds is determined in a test of phosphorylation of substrate by the KDR enzyme in vitro by a scintillation technique (96-well plate, NEN).
The cytoplasmic domain of the human KDR enzyme was cloned in a GST fusion form into the baculovirus expression vector pFastBac. The protein was expressed in SF21 cells and purified to about 60% homogeneity.
The kinase activity of KDR is measured in 20 mM MOPS, 10 mM MgCl2, 10 mM MnCl2, 1 mM DTT, 2.5 mM EGTA, 10 mM b-glycerophosphate, pH=7.2, in the presence of 10 mM MgCl2, 100 μM Na3VO4, 1 mM NaF. 10 μl of the compound are added to 70 μl of kinase buffer containing 100 ng of KDR enzyme at 4° C. The reaction is initiated by adding 20 μl of solution containing 2 μg of substrate (SH2—SH3 fragment of PLCγ expressed in the form of a GST fusion protein), 2 μCi γ ^33P[ATP] and 2 μM cold ATP. After incubating for 1 hour at 37° C., the reaction is stopped by adding 1 volume (100 μl) of 200 mM EDTA. The incubation buffer is removed and the wells are washed three times with 300 μl of PBS. The radioactivity is measured in each well using a Top Count NXT (Packard) radioactivity counter.
The background noise is determined by measuring the radioactivity in four different wells containing radioactive ATP and the substrate alone.
A control for total activity is measured in four different wells all containing the reagents (γ^33P-[ATP], KDR and PLCγ substrate) but in the absence of compound.
The inhibition of the KDR activity with the compound of the invention is expressed as percentage inhibition of the control activity determined in the absence of compound.
The compound SU5614 (Calbiochem) (1 μM) is included in each plate as control for inhibition.

The target in another series is T2, human FAK (Homo sapiens, UniProt Q05397).
T2 construct: The complete human FAK cDNA, whose N-terminal end was labelled with histidine, was cloned into a baculovirus expression vector pFastBac HTc; made in house
The experiment in a line: FAK autophosphorylation inhibition, time-resolved fluorescence test (HTRF). The settings on record: 15 μM ATP, 1 hour at 37° C.; read-out: FAK IC 50. The class given is biochemical. How it is done: The inhibitory activity of the compounds on FAK is determined by a measurement of the inhibition of the autophosphorylation of the enzyme using a time-resolved fluorescence test (HTRF).
The complete human FAK cDNA, whose N-terminal end was labelled with histidine, was cloned into a baculovirus expression vector pFastBac HTc. The protein was expressed and purified at about 70% homogeneity.
The kinase activity is determined by incubating the enzyme (6.6 μg/ml) with various concentrations of test compound in a 50 mM Hepes buffer, pH=7.2, containing 10 mM MgCl2, 100 μM Na3VO4, 15 μM ATP for 1 hour at 37° C. The enzymatic reaction is stopped by adding Hepes buffer, pH=7.0, containing 0.4 mM KF, 133 mM EDTA, 0.1% BSA and the labelling is carried out, for 1 to 2 hours at room temperature, by adding to this buffer an anti-histidine antibody labelled with XL665 and a monoclonal antibody phospho-specific for tyrosine, conjugated with europium cryptate (Eu-K). The characteristics of the two fluorophores are available in G. Mathis et al., Anticancer Research, 1997, 17, pages 3011-3014. The energy transfer between the excited europium cryptate to the acceptor XL665 is proportional to the degree of autophosphorylation of FAK. The signal of long duration specific for XL-665 is measured in a Packard Discovery plate counter. All the assays are performed in duplicate and the mean of the two assays is calculated. The inhibition of the FAK autophosphorylation activity with compounds of the invention is expressed as a percentage inhibition relative to a control whose activity is measured in the absence of test compound. For the calculation of the % inhibition, the [signal at 665 nm/signal at 620 nm] ratio is considered.

Series [2] has as its target T3, human Tie2 (intracellular domain 776-1124, GST fusion) (Homo sapiens, UniProt Q02763).
T3 construct: the amino acids of the intracellular domain 776-1124; made in house
The experiment in a line: Phosphorylation of PLC by Tie2 (GST-Tie2), FlashPlate radioactivity test. The class given is biochemical. To be noted: 2 μM cold ATP, GST-PLC substrate, 1 hour at 37° C.; read-out: TEI2 IC 50. How it is done:
The coding sequence for human Tie2 corresponding to the amino acids of the intracellular domain 776-1124 was generated by PCR using the cDNA isolated from human placenta as model. This sequence was introduced into a baculovirus expression vector pFastBacGT in the form of a GST fusion protein.
The inhibitory effect of the molecules is determined in a test of phosphorylation of PLC by Tie2 in the presence of GST-Tie2 purified to about 80% homogeneity. The substrate is composed of the SH2—SH3 fragments of PLC expressed in the form of the GST fusion protein.
The kinase activity of Tie2 is measured in a 20 mM MOPS buffer, pH 7.2, containing 10 mM MgCl2, 10 mM MnCl2, 1 mM DTT, 10 mM glycero-phosphate. A reaction mixture composed of 70 μl of kinase buffer containing 100 ng of GST-Tie2 enzyme per well is deposited in a FlashPlate 96-well plate kept on ice. 10 μl of the test molecule diluted in DMSO to a concentration of 10% maximum are then added. For a given concentration, each measurement is carried out in quadruplicate. The reaction is initiated by adding 20 μl of solution containing 2 μg of GST-PLC, 2 μM of cold ATP and 1 μCi of d′^33P[ATP]. After incubating for 1 hour at 37° C., the reaction is stopped by adding 1 volume (100 μl) of EDTA at 200 mM. After removing the incubation buffer, the wells are washed three times with 300 μl of PBS. The radioactivity is measured on a Wallac MicroBeta1450.
The inhibition of the Tie2 activity is calculated and expressed as a percentage inhibition relative to the control activity determined in the absence of compound.

T2 sequence (Q05397 whole entry): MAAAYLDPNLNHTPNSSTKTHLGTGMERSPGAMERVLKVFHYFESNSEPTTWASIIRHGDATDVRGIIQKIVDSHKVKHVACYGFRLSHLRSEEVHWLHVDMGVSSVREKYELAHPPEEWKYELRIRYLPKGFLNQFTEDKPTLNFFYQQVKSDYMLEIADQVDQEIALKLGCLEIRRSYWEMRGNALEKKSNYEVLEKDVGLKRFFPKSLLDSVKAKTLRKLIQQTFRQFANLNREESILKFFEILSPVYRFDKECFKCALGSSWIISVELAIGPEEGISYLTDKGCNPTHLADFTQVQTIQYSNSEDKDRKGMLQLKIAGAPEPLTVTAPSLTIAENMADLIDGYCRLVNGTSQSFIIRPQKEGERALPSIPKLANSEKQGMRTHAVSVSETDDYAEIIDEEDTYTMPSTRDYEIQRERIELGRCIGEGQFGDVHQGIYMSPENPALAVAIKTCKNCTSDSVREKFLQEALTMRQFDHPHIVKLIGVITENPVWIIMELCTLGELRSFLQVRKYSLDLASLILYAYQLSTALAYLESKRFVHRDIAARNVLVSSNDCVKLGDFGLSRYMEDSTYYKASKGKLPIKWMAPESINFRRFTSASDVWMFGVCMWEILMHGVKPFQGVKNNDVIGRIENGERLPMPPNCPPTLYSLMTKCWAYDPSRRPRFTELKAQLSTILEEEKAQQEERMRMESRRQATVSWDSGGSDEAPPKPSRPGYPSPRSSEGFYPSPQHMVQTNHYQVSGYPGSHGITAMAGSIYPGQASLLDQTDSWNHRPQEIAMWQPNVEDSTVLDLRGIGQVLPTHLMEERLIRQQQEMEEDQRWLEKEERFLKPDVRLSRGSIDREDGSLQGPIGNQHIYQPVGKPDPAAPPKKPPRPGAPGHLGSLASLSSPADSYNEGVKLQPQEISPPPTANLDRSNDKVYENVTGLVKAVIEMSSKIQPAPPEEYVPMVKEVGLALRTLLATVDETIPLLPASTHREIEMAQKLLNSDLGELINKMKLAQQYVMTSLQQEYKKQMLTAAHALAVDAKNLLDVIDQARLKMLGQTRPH
T3 sequence (Q02763 776-1124): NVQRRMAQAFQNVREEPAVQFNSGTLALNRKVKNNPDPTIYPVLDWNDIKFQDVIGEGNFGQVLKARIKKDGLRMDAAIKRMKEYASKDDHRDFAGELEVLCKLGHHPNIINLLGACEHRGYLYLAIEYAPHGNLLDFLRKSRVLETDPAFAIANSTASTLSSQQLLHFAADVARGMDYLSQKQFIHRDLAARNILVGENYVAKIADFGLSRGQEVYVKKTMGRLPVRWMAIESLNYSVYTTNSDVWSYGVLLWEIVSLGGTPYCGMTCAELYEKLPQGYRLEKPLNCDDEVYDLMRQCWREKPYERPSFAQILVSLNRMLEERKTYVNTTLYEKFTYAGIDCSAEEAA
T1 sequence (P35968 786-1356 limits assumed): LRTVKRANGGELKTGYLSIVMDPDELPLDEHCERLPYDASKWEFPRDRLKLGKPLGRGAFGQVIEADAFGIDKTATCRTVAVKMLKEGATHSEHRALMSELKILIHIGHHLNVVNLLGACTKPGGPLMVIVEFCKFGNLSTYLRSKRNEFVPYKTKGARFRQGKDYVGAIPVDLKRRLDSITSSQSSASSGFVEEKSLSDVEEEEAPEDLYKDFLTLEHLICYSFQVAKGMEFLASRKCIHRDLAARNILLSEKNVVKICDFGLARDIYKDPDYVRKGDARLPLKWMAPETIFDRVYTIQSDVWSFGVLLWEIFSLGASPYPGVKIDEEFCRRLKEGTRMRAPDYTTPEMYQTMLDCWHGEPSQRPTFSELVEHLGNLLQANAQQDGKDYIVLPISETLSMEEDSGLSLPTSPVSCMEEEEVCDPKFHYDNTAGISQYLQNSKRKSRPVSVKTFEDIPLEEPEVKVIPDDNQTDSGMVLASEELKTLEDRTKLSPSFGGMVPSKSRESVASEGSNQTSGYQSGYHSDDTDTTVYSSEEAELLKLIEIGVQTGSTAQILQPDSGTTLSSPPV

Turning to `CCCC(=O)Nc1[nH]cc(-c2ccc(NC(=O)Nc3cc(C(F)(F)F)ccc3F)cc2)c1C(N)=O` [Example 5, 2-Butyrylamino-4-{4-[3-(2-fluoro-5-trifluoromethylphenyl)ureido]phenyl}-1H-pyrrole-3-carboxamide], the IC50 in series [1] amounted to 42 nM; on human FAK, 266 nM; in series [2], 11 nM.
On the same counts, the results for `CC(=O)Nc1[nH]cc(-c2ccc(NC(=O)Nc3ccc(OC(F)(F)F)cc3)cc2)c1C(N)=O` [Example 21, 2-Acetylamino-4-{4-[3-(4-trifluoromethoxyphenyl)ureido]phenyl}-1H-pyrrole-3-carboxamide] are 19 nM, 163 nM and 118 nM.
The like results for `CC(=O)Nc1[nH]cc(-c2ccc(NC(=O)Nc3ccc(C)c(C)c3)cc2)c1C(N)=O` [Example 19, 2-Acetylamino-4-{4-[3-(3,4-dimethylphenyl)ureido]phenyl}-1H-pyrrole-3-carboxamide] were, in that order, 13 nM, 717 nM and 125 nM.
On the same counts, the results for `NC(=O)c1c[nH]cc1-c1ccc(NC(=O)Nc2cc(C(F)(F)F)ccc2F)cc1` [Example 1, 4-{4-[3-(2-Fluoro-5-trifluoromethylphenyl)ureido]phenyl}-1H-pyrrole-3-carboxamide] are 6470 nM, 2060 nM and 69 nM.
As for `CC(=O)Nc1[nH]cc(-c2ccc(NC(=O)Nc3ccc(C)c(C(F)(F)F)c3)cc2)c1C(N)=O` [Example 40, 2-Acetylamino-4-{4-[3-(4-methyl-3-trifluoromethylphenyl)ureido]phenyl}-1H-pyrrole-3-carboxamide], the melting point was 266 °C.

A word on the melting point: it is the temperature of the solid-liquid transition.
